Assay results: patent US8227434B1, “Materials and methods for treating oncological disorders” (H. Lee Moffitt Cancer Center & Research Institute, Inc., priority 2003, dated 2012)

How the values were obtained:
LR5 cell line = LR5 cell line (Bellamy et al., 1991); cited from earlier work
8226/LR5 cell line = test: Alkaline comet assay of melphalan induced DNA crosslinks; type: cell-based, human; conditions: 2 h, FIG. 3A
Description: (§1) The alkaline comet assay was used to detect melphalan induced DNA crosslinks in 8226 myeloma cells. Cells cultured in suspension or adhered to FN were treated with varying doses of melphalan or vehicle control for two hours. Following drug treatment, single strand breaks were induced, by irradiating appropriate samples at 900 rads (MARK I model 68A irradiator). After drug treatment and irradiation, 5,000 cells were placed in a microcentrifuge tube containing 1 ml cold PBS, and the alkaline comet assay was performed as described by Kent et al. (1995). Fifty images were randomly captured per slide, and images by fluorescence microscopy were quantified using Optimus^R software as previously described (Hazlehurst et al., 2001; Kent et al., 1995).
(§2) The percent crosslinking was calculated as follows:
(§3) The data shown are the means of three independent experiments (n=50 images for each dose of each independent experiment). An analysis of variance (ANOVA) model was used to quantify the relationship between the response variable and the two independent variables.

[1] = tested on: 8226 cells in suspension (8226/SUS); test: as above; type: cell-based, human; conditions: 2 h
Description: as §1, §2, §3

[2] = tested on: 8226 cells adhered to FN (8226/FN); test: as above; type: cell-based, human; conditions: 2 h, FIG. 3B
Description: as §1, §2, §3

[3] = tested on: plasma cells from bone marrow aspirates of myeloma patients; test: Melphalan-induced apoptosis of patient specimens (TUNEL, kappa/lambda staining); type: cell-based, human; conditions: 10 patient specimens
Description: To determine if CAM-DR occurred in patient specimens as well as myeloma cell lines, a double immunofluorescent assay was developed to simultaneously detect apoptotic plasma cells. After obtaining IRB approved consent, mononuclear cells from bone marrow aspirates obtained from patients with stage II and III myeloma were isolated by ficol-hypaque centrifugation and placed in αMEM media. One million cells/ml were adhered to FN or placed in suspension (0.1% poly-hema coated wells) for 2 hrs in serum free αMEM media. Following two hours of adhesion, fresh media with 15% FBS was added and cells were incubated for an additional 12-16 hrs. Following adhesion overnight, cells were treated with 200 uM melphalan for two hours and extracellular drug was removed and maintained in drug free media for an additional 24 hrs prior to fixation. Plasma cells were identified by either positive kappa or lambda staining (Vector laboratories, Burlingame, Calif.) and apoptotic plasma cells were identified by TUNEL analysis labeling using a commercially available kit (Intergen company, Purchase, N.Y., Cat. S7110). Fluorescence microscopy (Vysis, Downers Grove, Ill.) was used to count 500 total plasma cells per slide. Results following cell adhesion were compared to mononuclear cells exposed to melphalan in suspension culture.

LR5 cells = test: Cell-cycle analysis (BrDU/PI flow cytometry); type: cell-based, human; conditions: 48 h post 10 μM melphalan, 2 hour treatment
Description: (§4) To check the melphalan effect on cell cycle progressing, 8226 and LR5 were treated with 10 μM, 25 μM and 50 μM of melphalan and collected at 24 h and 48 h. Cells were then fixed with 70% EtOH at 4° C. overnight; and resuspended with 500 μl of PBS containing 25 μg/ml propidium Iodide (PI) (Sigma, St. Louis, Mo.) and 1.25 mg/ml Rnase A (Invetrogen) and incubated at 37° C. for 30 minutes in the dark. BrDU/PI staining was done as described (Hazlehurst et al., 2000). Briefly, within various of time post-drug treatment, cells were treated with 10 μM Bromodeoxyuridine (BrDU) at 37° C. for 30 mins, fixed in 70% ethanol., denatured (2MHCl) and neutralized (0.1M sodium borate). Cell were stained with anti-BrDU FITC antibody (BD, Phamingen), then resuspended with 500 μl of PBS containing 25 μg/ml propidium Iodide (PI) (Sigma, St. Louis, Mo.) and 1.25 mg/ml Rnase A (Invetrogen) and incubated at 37° C. for 30 mins in the dark. Nuclear staining was analyzed on a FACScan flow cytometer (Becton Dickinson, San Jose, Calif.). Watson (Pragmatic) from FlowJo 4.4.4 was used for DNA content analysis.

8226 cells [4] = test: Cell-cycle analysis (BrDU/PI flow cytometry); type: cell-based, human; conditions: 48 h post 10 μM melphalan, 2 hour treatment
Description: as §4

8226 cells [5] = test: Alkaline comet assay, ICL formation and removal; type: cell-based, human; conditions: within 17 hours after maximum ICL formation; 2 h exposure to 25 μM melphalan
Description: (§5) The alkaline comet assay was used to detect melphalan induced DNA crosslinks in 8226 and 8226/LR5 myeloma cells (Hazlehurst et al., 2003). To examine the dose response, 2×10^5 cells were treated with 25 μM. 50 μM and 100 μM melphalan or vehicle control for two hours, washed in PBS and cultured in drug-free medium for another three hours culture. After drug treatment, samples were irradiated at 900 rads (MARK I model 68A irradiator). The alkaline comet assay was performed according to the manufacturer's instructions (Travegene). Fifty images per slide were randomly captured by fluorescence microscopy and images were quantified using LAI comet analysis software (Loats Associates, Inc. Westminster, Md.). The percent crosslinking was calculated as follows: Relative crosslinking=(1-(Comet moment drug treated-comet moment control/comet moment 900 rads-comet moment control))×100. To examine the ICL formation and removal, 8226 and LR5 were incubated in 25 μM or 50 μM melphalan and vehicle control, respectively for 2 hours after which they were cultured in drug free medium for various times. Cells were collected at 0 h, 3 h, 8 h and 23 h after 2 h drug treatment to perform the comet assay. […] An analysis of variance (ANOVA) model was used to quantify the relationship between the response variable and the two independent variables.

8226/LR5 cells = test: Alkaline comet assay, ICL formation and removal; type: cell-based, human; conditions: within 17 hours after maximum ICL formation; 2 h exposure to 50 μM melphalan
Description: as §5

SMILES	effect on resistance to melphalan (LR5 cell line)	percent crosslinking, 8226/LR5 Mean (SE) (8226/LR5 cell line; 25 uM melphalan)	percent crosslinking, 8226/LR5 Mean (SE) (8226/LR5 cell line; 50 uM melphalan)	percent crosslinking, 8226/LR5 Mean (SE) (8226/LR5 cell line; 100 uM melphalan)	percent crosslinking, 8226/SUS Mean (SE) ([1]; 25 uM melphalan, FIG. 3A)	percent crosslinking, 8226/SUS Mean (SE) ([1]; 25 uM melphalan, FIG. 3B)	percent crosslinking, 8226/SUS Mean (SE) ([1]; 50 uM melphalan, FIG. 3B)	percent crosslinking, 8226/SUS Mean (SE) ([1]; 100 uM melphalan, FIG. 3A)	percent crosslinking, 8226/SUS Mean (SE) ([1]; 100 uM melphalan, FIG. 3B)	percent crosslinking, 8226/FN Mean (SE) ([2]; 25 uM melphalan)	percent crosslinking, 8226/FN Mean (SE) ([2]; 50 uM melphalan)	percent crosslinking, 8226/FN Mean (SE) ([2]; 100 uM melphalan)	mean percent apoptosis of plasma cells ([3]; adhered to FN prior to treatment with 200 uM melphalan)	mean percent apoptosis of plasma cells ([3]; maintained in cell suspension, 200 uM melphalan)	cell cycle effect (LR5 cells)	cell cycle effect (8226 cells [4])	removal of ICL (8226 cells [5])	ICL removed (8226/LR5 cells)
CCCCS(=N)(=O)CCC(N)C(=O)O (stereo not drawn) [buthionine sulfoximine]	partially reversed resistance to melphalan																	
N[C@@H](Cc1ccc(N(CCCl)CCCl)cc1)C(=O)O [melphalan, Melphalan]		−4.49 (16.687) %	14.02 (8.648) %	47.32 (9.121) %	20.31 (9.579) %	22.40 (9.458) %	46.27 (5.850) %	67.31 (4.110) %	70.67 (6.175) %	29.11 (0.888) %	47.73 (2.141) %	72.03 (2.09) %	27.7%	55.6%	continue cell cycle progression	arrested in G2/M phase	no significant removal of ICL	40%
